Experiments:
[1] = β-carotene bleaching method (carotene-linoleic acid autoxidation); format: biochemical; settings: for Antioxidant ability (β-carotene method) compared in words with BHT or Pro-His-His: 5 μM; for BHT-Relative Antioxidant Ability (%) β-Carotene Method: sample concentration 5 μM, 50 minutes at 50° C., absorbance at 492 nm, relative to 5 μM BHT
Source text: (§1) The antioxidant action of a peptide may be determined by a known method such as DPPH method or β-carotene bleaching method (see, e.g., Chen, H M., Muramoto, K., Yamauchi, F., and Nokihara, K., J. Agric. Food Chem., 44, 2619-2623, 1996. Antioxidant Activity of Designed Peptides Based on the Antioxidative Peptide Isolated from Digests of a Soybean Protein). DPPH method is to measure radical scavenging ability using 1,1-diphenyl-2-picrylhydrazyl (DPPH). […] In addition, the level of an antioxidant action can be evaluated by the degree of decrease of absorbance. β-carotene bleaching method is to calculate antioxidant ability of an analyte by autoxidizing a mixture of β-carotene, linoleic acid and the analyte and measuring suppression of β-carotene oxidization. […] In addition, the level of an antioxidant action can be evaluated by the degree of decrease of absorbance. Such known evaluation methods as described above reflect a part of antioxidant mechanisms which act in a living body in parallel.
β-carotene was dissolved in chloroform to prepare 1 mg/mL solution. Linoleic acid was dissolved in chloroform to prepare 0.1 g/mL solution. Tween 40 was dissolved in chloroform to prepare 0.2 g/mL solution. Into 100 mL recovery flasks, 0.15 mL of β-carotene solution in chloroform, 0.1 mL of linoleic acid solution in chloroform, and 0.3 mL of Tween 40 solution in chloroform were aliquoted, and the mixed solution was evaporated to dryness with an evaporator until the smell of chloroform was completely disappeared. The dried mixture was dissolved in 30 mL of pure water, and 2.7 mL of 0.2 M phosphate buffer (pH 6.8) was further added thereto, followed by gentle stirring to prepare carotene-linoleic acid solution. Next, the peptides obtained in Example 1 were dissolved in ethanol to prepare 1 mL of 0.05 mM peptide solutions, respectively.
Thereafter, 0.45 mL of carotene-linoleic acid solution and 0.05 mL of undiluted sample solution were mixed and stirred (sample concentration: 5 μM), and the reaction was allowed to proceed for 50 minutes at 50° C. Five minutes and 50 minutes after the start of the reaction, the absorbance at OD 492 nm was measured with a UV-VIS spectrophotometer. For blanks, a blank solution was prepared using the same volume of distilled water instead of carotene-linoleic acid solution, and the absorbance of the blank solution was measured via the same reaction condition. For controls, a control solution was prepared using ethanol instead of sample solutions, and the absorbance of the control solution was measured via the same reaction condition.
The antioxidant ability was calculated according to the following formula.
Antioxidant ability(%)=[1-−A5S−A50S)/(A5C−A50C)]×100
A5C=The absorbance of the control after 5-minute reaction. A5S=The absorbance of the sample after 5-minute reaction. A50C=The absorbance of the control after 50-minute reaction. A50S=The absorbance of the sample after 50-minute reaction.
(§2) The BHT-relative antioxidant ability was calculated according to the following formula.
BHT-Relative Antioxidant Ability(%)=[AntOx(%)]/[5 μM BHT(%)]×100

[2] = DPPH radical scavenging ability; format: biochemical; settings: for BHT-Relative Antioxidant Ability (%) DPPH Method: sample concentration 500 μM, 50 minutes at room temperature, absorbance at 517 nm, relative to 500 μM BHT; for Radical scavenging ability (DPPH) compared in words with BHT or Pro-His-His: 500 μM
Source text: as §1
Next, DPPH was dissolved in ethanol to prepare 10 mL of 0.1 mM DPPH-ethanol solution, and 0.15 mL of this DPPH-ethanol solution and 0.15 mL of the above-prepared undiluted solution were mixed and stirred (the sample concentration: 500 μM). The reaction was allowed to proceed for 50 minutes at room temperature, and the absorbance at 517 nm wavelength was measured with a UV-VIS spectrophotometer (JASCO V-570). For blanks, a blank solution was prepared using the same volume of ethanol instead of DPPH, and the absorbance of the blank solution was measured via the same reaction condition. For controls, a control solution was prepared using ethanol instead of sample solutions, and the absorbance of the control solution was measured via the same reaction condition.
The DPPH radical scavenging ability was calculated according to the following formula.
Radical Scavenging Ability AntOx(%)=(Acon−Asam)/Acon×100
Acon=The absorbance of the control after being left to stand for 50 minutes. Asam=The absorbance of the sample after being left to stand for 50 minutes.
as §2
BHT-Relative Antioxidant Ability(%)=[AntOx(%)]/[500 μM BHT(%)]×100

Mushroom tyrosinase = Mushroom tyrosinase (Agaricus bisporus, UniProt C7FF04); experiment: Tyrosinase inhibitory activity with L-DOPA as substrate; format: biochemical; settings: for IC50: pH 6.8, room temperature, absorbance at 475 nm for 60 seconds, read-out: IC50 for tyrosinase inhibition
Experimental: Tyrosinase inhibitory activity of a peptide can be evaluated by a known method using tyrosinase and its substrate such as L-dihydroxyphenylalanine (L-DOPA) or L-tyrosine. Specific examples of the evaluation method are described in the Examples below. For example, a peptide whose tyrosinase inhibitory activity should be measured, tyrosinase, and its substrate are dissolved in phosphate buffer, respectively (the peptide and tyrosinase may be dissolved in the same solution). Immediately after mixing the three components, change in absorbance at 475 nm is measured with a spectrophotometer. Since melanin has an absorption maximum at 475 nm, absorbance at 475 nm increases if melanin is synthesized from L-DOPA by tyrosinase. […] Therefore, the tyrosinase inhibitory activity of a peptide can be evaluated based on the change in absorbance.
Mushroom tyrosinase (SIGMA-Aldrich, Missouri, USA)
L-DOPA (SIGMA-Aldrich, Missouri, USA)
50 mM Sodium phosphate buffer (pH 6.8)
Using 50 mM sodium phosphate buffer (pH 6.8), 5 mM L-DOPA solution, mushroom tyrosinase solution (2 units/μL) and 1 mM inhibitor stock solution (×10) were prepared.
Reaction Solution A (25 μL of 5 mM DOPA solution; 75 μL of 50 mM sodium phosphate buffer (pH 6.8)) and Reaction Solution B (25 μL of inhibitor stock solution; 12.5 μL of tyrosinase solution; 112.5 μL of 50 mM sodium phosphate buffer (pH 6.8)) were prepared in two Eppendorf tubes, respectively. Reaction Solutions A and B were mixed just before the measurement, and the absorbance at 475 nm wavelength was measured with a spectrophotometer (V-570, Jasco, Tokyo, Japan). The measurement was carried out for 60 seconds at room temperature, and the absorbance was recorded every 1 second. This operation was repeated 3 times for each sample concentration.
The tyrosinase activity ratio at each inhibitor concentration was calculated based on the control (tyrosinase alone) value, and IC50s for tyrosinase inhibition of the samples were calculated using Ngraph. The fitting formula below was used in the calculation.
y=a−(a−b)/(1+(x/c)̂d (a=Minimum value of y; b=Maximum value of y; c=[…]; d=Variable)

ddY mice = experiment: Acute dermal toxicity study of mimosine cream; format: in vivo; settings: cream applied to shaved trunk twice a day for three days; skins surveyed at day 5
Experimental: Vegetable emulsified wax (emulsifying wax, Orangeflower Inc., ingredients: stearyl alcohol, polysorbate 60) and oil (edible olive oil, Ajinomoto Co., Inc.) were completely melted in hot water (50° C.). Warm water (ultrapure water) was added thereto, and the mixture was mixed. An aqueous solution of mimosine or mimosine-introduced peptide was added thereto, and the mixture was completely mixed up. The obtained mixture was stored at 4° C. until use in the animal experiment.
The left and right sides of the trunk of ddY mice (9-week-old, male, 6 mice in each group) were shaved with clippers under anesthesia with ether. […] Any special changes were not observed. […] Therefore, it is thought that mimosine and mimosine-introduced peptide can be utilized in the cosmetic field.

Mushroom tyrosinase, sequence (G1K3P4 entry or part of it): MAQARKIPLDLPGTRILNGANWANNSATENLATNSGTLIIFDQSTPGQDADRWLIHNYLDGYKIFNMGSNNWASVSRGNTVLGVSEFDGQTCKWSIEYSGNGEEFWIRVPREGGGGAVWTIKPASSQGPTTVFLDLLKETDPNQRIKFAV
Mushroom tyrosinase, sequence (C7FF04 1-392): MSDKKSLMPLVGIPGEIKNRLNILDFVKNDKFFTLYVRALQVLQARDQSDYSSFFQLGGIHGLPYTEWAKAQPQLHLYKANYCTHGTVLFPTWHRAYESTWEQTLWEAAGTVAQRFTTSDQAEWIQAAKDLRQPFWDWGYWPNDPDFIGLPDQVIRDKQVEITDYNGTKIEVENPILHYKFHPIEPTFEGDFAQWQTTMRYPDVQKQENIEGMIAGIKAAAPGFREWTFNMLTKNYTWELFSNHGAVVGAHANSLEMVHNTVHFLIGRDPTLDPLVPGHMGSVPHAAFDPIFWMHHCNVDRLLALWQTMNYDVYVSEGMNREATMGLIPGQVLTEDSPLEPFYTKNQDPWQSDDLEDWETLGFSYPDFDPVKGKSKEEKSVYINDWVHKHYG

Mim-His-Tyr [Sample 3]
Antioxidant ability (β-carotene method) compared in words with BHT or Pro-His-His [1]: at the same level as BHT
BHT-Relative Antioxidant Ability (%) β-Carotene Method [1]: 95.80%
BHT-Relative Antioxidant Ability (%) DPPH Method [2]: 84.88%
IC50 (Mushroom tyrosinase): 8.84 µM

Arg-His-Trp [Sample 5X, reference compound]
BHT-Relative Antioxidant Ability (%) β-Carotene Method [1]: 41.37%
BHT-Relative Antioxidant Ability (%) DPPH Method [2]: 11.26%

Tyr-Lys-Tyr [Sample 4X, reference compound]
BHT-Relative Antioxidant Ability (%) β-Carotene Method [1]: 18.88%
BHT-Relative Antioxidant Ability (%) DPPH Method [2]: 9.55%

Leu-Trp-Trp [Sample 6X, reference compound]
BHT-Relative Antioxidant Ability (%) β-Carotene Method [1]: 28.28%
BHT-Relative Antioxidant Ability (%) DPPH Method [2]: 73.27%

Leu-His-Mim [Sample 8]
BHT-Relative Antioxidant Ability (%) β-Carotene Method [1]: 77.79%
BHT-Relative Antioxidant Ability (%) DPPH Method [2]: 26.45%

Mim-His-Trp [Sample 5]
Antioxidant ability (β-carotene method) compared in words with BHT or Pro-His-His [1]: at the same level as BHT
BHT-Relative Antioxidant Ability (%) β-Carotene Method [1]: 92.66%
Radical scavenging ability (DPPH) compared in words with BHT or Pro-His-His [2]: at the same level as or higher than BHT
BHT-Relative Antioxidant Ability (%) DPPH Method [2]: 99.06%
Tyrosinase inhibitory activity compared in words with mimosine or kojic acid (Mushroom tyrosinase): higher than kojic acid
IC50 (Mushroom tyrosinase): 3.02 µM

Leu-Trp-Mim [Sample 9]
BHT-Relative Antioxidant Ability (%) β-Carotene Method [1]: 77.32%
BHT-Relative Antioxidant Ability (%) DPPH Method [2]: 41.02%

NC(Cn1ccc(=O)c(O)c1)C(=O)O (stereo not drawn) [Mimosine]
Acute dermal toxicity (skin condition) (ddY mice): neither mimosine nor a mimosine-introduced peptide has an acute dermal toxicity

Mim-Arg-Tyr [Sample 2]
BHT-Relative Antioxidant Ability (%) β-Carotene Method [1]: 66.77%
BHT-Relative Antioxidant Ability (%) DPPH Method [2]: 77.89%

Pro-His-Tyr [Sample 3X, reference compound]
BHT-Relative Antioxidant Ability (%) β-Carotene Method [1]: 33.56%
BHT-Relative Antioxidant Ability (%) DPPH Method [2]: 9.63%

MimLys-Tyr [Sample 4]
BHT-Relative Antioxidant Ability (%) β-Carotene Method [1]: 81.96%
BHT-Relative Antioxidant Ability (%) DPPH Method [2]: 75.33%

Tyr-Arg-Tyr [Sample 2X, reference compound]
BHT-Relative Antioxidant Ability (%) β-Carotene Method [1]: 7.78%
BHT-Relative Antioxidant Ability (%) DPPH Method [2]: 11.31%

Pro-His-Mim [Sample 10]
BHT-Relative Antioxidant Ability (%) β-Carotene Method [1]: 79.55%
BHT-Relative Antioxidant Ability (%) DPPH Method [2]: 26.45%

Mim-Trp-Trp [Sample 6]
BHT-Relative Antioxidant Ability (%) β-Carotene Method [1]: 72.56%
Radical scavenging ability (DPPH) compared in words with BHT or Pro-His-His [2]: at the same level as or higher than BHT
BHT-Relative Antioxidant Ability (%) DPPH Method [2]: 117.34%
IC50 (Mushroom tyrosinase): 28.2 µM

Mim-Pro-His-His [Sample 1]
Antioxidant ability (β-carotene method) compared in words with BHT or Pro-His-His [1]: at the same level as BHT
BHT-Relative Antioxidant Ability (%) β-Carotene Method [1]: 93.86%
Radical scavenging ability (DPPH) compared in words with BHT or Pro-His-His [2]: at the same level as or higher than BHT
BHT-Relative Antioxidant Ability (%) DPPH Method [2]: 111.67%
IC50 (Mushroom tyrosinase): 16.4 µM

Pro-Mim-His [Sample 7]
BHT-Relative Antioxidant Ability (%) β-Carotene Method [1]: 73.07%
BHT-Relative Antioxidant Ability (%) DPPH Method [2]: 37.04%

Leu-His-Trp [Sample 8X, reference compound]
BHT-Relative Antioxidant Ability (%) β-Carotene Method [1]: 46.79%
BHT-Relative Antioxidant Ability (%) DPPH Method [2]: 41.92%

Pro-His-His [Sample 1X, reference compound]
BHT-Relative Antioxidant Ability (%) β-Carotene Method [1]: 63.00%
BHT-Relative Antioxidant Ability (%) DPPH Method [2]: 23.01%

Cc1cc(C(C)(C)C)c(O)c(C(C)(C)C)c1 [BHT, butylated hydroxytoluene, reference compound]
BHT-Relative Antioxidant Ability (%) β-Carotene Method [1]: 100.00%
BHT-Relative Antioxidant Ability (%) DPPH Method [2]: 100.00%
